As a reminder, the IC50 is the concentration needed to halve the response being measured.

The record followed here is patent US8389541B2, “Inhibitors of protein tyrosine kinase activity” (MethylGene Inc., priority 2007, dated 2013).

For one test, the target named is T1, VEGF receptor KDR (Homo sapiens, UniProt P35968).
T1 construct: made in house; host or cells: Sf9 cells (Spodoptera frugiperda), baculovirus
The test can be described thus: In vitro receptor tyrosine kinase assay (DELFIA), VEGF receptor KDR. It is filed as biochemical. Conditions: GST-VEGFR2 806-1356, 0.6 uM ATP; read-out: VEGFR IC50.

Another test has as its system DU145 cells. Kind of test: Scatter assay in DU145 cells (HGF-stimulated). The format is cell-based. Conditions: Homo sapiens, DU-145, last dose that created an inhibitory effect on scattering, 24 h, read-out: DU145 SCATT. INHIB IC50. In short, it runs like this: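 DU145 prostate carcinoma cells were grown 48 h in MEM/10% FBS to form compact colonies, pre-treated with inhibitors (0.00032-10 uM) for 3 h, then stimulated with human HGF-containing 293T conditioned medium for 24 h. IC50 was taken as the last dose giving inhibition of scattering.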

The test system of another test is A549 cells. Kind of test: Wound healing assay in A549 cells (HGF-stimulated). Conditions: Homo sapiens, last dose that inhibited gap closing by more than 25%, 24 h, read-out: A549 WOUND_HEALING IC50. It is filed as cell-based. In short, it runs like this:
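Confluent A549 cells in DMEM low glucose with 10% FBS were pre-treated with inhibitors (0.00032-10 uM) for 3 h, then scratch-wounded. Migration was stimulated with HGF-containing conditioned medium from 293T cells over-expressing human HGF, and culture continued for 24 h; a control was run on every plate.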

The target of the next test is T2, c-Met (Homo sapiens, UniProt P08581).
T2 construct: endogenous in cells; host or cells: MKN45 gastric carcinoma cells
T2 sequence (P08581 25-1390): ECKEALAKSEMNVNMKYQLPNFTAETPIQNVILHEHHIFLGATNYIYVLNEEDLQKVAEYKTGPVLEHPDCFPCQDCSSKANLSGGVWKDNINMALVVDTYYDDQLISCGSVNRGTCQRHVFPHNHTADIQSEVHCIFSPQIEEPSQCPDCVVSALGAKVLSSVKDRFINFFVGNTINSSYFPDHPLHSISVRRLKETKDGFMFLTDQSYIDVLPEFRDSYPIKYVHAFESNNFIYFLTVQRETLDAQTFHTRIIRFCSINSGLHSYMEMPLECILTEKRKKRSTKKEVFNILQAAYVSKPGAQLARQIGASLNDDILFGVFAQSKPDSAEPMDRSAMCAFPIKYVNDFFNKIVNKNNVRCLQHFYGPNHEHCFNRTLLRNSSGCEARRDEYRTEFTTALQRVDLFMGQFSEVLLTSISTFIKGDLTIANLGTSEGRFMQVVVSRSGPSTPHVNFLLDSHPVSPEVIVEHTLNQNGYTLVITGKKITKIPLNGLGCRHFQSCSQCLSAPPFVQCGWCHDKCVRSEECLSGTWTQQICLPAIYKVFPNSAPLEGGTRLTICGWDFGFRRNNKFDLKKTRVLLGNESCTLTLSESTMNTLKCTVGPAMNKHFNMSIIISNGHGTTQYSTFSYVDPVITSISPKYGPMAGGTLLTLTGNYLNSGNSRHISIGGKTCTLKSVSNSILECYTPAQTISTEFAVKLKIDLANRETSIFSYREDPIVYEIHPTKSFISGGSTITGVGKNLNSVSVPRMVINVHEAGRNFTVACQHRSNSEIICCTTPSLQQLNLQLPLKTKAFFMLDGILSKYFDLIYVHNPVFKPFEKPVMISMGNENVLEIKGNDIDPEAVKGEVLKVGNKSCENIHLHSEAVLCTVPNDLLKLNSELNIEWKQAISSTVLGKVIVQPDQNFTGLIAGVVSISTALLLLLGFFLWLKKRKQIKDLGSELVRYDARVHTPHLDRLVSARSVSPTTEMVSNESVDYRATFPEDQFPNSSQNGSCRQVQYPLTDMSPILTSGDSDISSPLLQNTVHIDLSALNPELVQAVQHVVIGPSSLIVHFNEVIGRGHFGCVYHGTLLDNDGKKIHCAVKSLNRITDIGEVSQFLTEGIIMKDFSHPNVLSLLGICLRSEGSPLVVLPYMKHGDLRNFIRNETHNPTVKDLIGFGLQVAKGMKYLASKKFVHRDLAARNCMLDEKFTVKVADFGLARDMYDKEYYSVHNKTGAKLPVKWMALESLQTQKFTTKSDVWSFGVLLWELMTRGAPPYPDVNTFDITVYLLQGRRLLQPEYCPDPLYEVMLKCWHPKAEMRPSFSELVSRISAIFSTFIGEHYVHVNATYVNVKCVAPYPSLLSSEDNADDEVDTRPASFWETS
Kind of test: Inhibition of c-Met phosphorylation in MKN45 cells (direct ELISA). The format is cell-based. To be noted: 3 h treatment, read-out: CMET ELISA IN MKN45 IC50. In short, it runs like this: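 MKN45 gastric carcinoma cells with amplified, constitutively active c-Met, grown 48 h and then treated with inhibitors for 3 h in triplicate. Lysates bound to plates and phospho-tyrosine detected by direct ELISA with chemiluminescence. IC50 from 4-parameter fit of triplicate means.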
In general terms: An ELISA detects its analyte on a solid surface through an enzyme-linked reagent.

Test [1] addresses recombinant human c-Met/HGF receptor (Homo sapiens, UniProt P08581). Kind of test: In vitro receptor tyrosine kinase assay (DELFIA), c-Met/HGF receptor.
A further test relates to MKN45 tumor. The test can be described thus: In vivo solid tumor disease model, MKN45. The arrangement: species or system mice. To be noted: Mus musculus, MKN-45, po, read-out: Tumor Growth Inhibition (%); for inhibition in vivo at 20 mg/kg: MKN45, 20 mg/kg orally daily; for inhibition in vivo at 40 mg/kg: 336 h, MKN45, 40 mg/kg orally daily, 14 days.

Structures are written as SMILES. Read-outs that look alike come from different tables or passages of the source.

Sequence of recombinant human c-Met/HGF receptor (P08581 1078-1337): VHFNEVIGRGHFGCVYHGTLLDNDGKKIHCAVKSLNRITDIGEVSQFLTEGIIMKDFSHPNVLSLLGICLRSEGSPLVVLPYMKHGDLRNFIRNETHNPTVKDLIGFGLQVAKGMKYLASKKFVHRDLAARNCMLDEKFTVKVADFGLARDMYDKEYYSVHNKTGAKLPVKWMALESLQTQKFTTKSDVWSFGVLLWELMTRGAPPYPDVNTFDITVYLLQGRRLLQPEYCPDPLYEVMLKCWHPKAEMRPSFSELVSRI
T1 sequence (P35968 806-1356): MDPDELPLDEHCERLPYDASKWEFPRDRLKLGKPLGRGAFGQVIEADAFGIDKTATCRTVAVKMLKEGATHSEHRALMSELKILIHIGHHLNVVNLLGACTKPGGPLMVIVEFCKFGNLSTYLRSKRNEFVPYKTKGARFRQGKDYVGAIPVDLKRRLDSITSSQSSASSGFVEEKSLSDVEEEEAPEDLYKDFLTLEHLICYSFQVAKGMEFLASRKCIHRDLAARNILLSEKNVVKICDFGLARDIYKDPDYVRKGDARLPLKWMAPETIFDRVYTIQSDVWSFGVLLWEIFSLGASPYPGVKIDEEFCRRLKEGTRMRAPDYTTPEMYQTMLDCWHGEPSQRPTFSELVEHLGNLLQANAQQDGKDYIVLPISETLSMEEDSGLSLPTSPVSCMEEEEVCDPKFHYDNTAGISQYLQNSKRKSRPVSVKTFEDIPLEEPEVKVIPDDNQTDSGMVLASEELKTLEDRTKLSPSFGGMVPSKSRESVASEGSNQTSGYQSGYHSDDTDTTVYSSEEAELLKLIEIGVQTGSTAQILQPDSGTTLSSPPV

With `CS(=O)(=O)CCNCc1ccc(-c2cc3nccc(Oc4ccc(NC(=O)C5(C(=O)Nc6ccccc6)CC5)cc4F)c3s2)cc1` [drawing 340], the half-maximal inhibitory concentration (IC50) (on VEGF receptor KDR; in the test on DU145 cells; in the test with A549 cells; on c-Met; in test [1]) was less than 250 nM throughout.
As for `COCCNCc1cnc(-c2cc3nccc(Oc4ccc(NC(=S)NC(=O)Cc5ccccc5)cc4F)c3s2)n1C` [drawing 342], the IC50 (on VEGF receptor KDR; with DU145 cells; in the test on A549 cells; on c-Met; in test [1]) was less than 250 nM in each case.
For `COCCNCc1cnc(-c2cc3nccc(Oc4ccc(NC(=O)CC(=O)Nc5ccccc5)cc4F)c3s2)n1C` [drawing 345], the IC50 is less than 250 nM on VEGF receptor KDR; 250 to 500 nM with DU145 cells; 250 to 500 nM with A549 cells; less than 250 nM at c-Met; less than 250 nM in test [1].
For `COCCNCc1ccc(-c2cc3nccc(Oc4ccc(NC(=O)CC(=O)N(C)c5ccccc5)cc4F)c3s2)nc1` [drawing 346], the IC50 at VEGF receptor KDR was less than 250 nM; with DU145 cells, 250 to 500 nM; in the test with A549 cells, 250 to 500 nM; at c-Met, less than 250 nM; in test [1], less than 250 nM.
Turning to `CN(C(=O)CC(=O)Nc1ccc(Oc2ccnc3cc(-c4ccc(CNCCS(C)(=O)=O)cc4)sc23)c(F)c1)c1ccccc1` [drawing 347], the IC50 at VEGF receptor KDR is less than 250 nM; with DU145 cells, 250 to 500 nM; in the test on A549 cells, 250 to 500 nM; at c-Met, less than 250 nM; in test [1], less than 250 nM.
In the case of `COCCNCc1ccc(-c2cc3nccc(Oc4ccc(NC(=O)C5(C(=O)Nc6ccccc6)CC5)cc4F)c3s2)nc1` [drawing 350], the IC50 (on VEGF receptor KDR; in the test on DU145 cells; with A549 cells; at c-Met; in test [1]) was less than 250 nM in each case.
`COCCNCc1ccc(-c2cc3nccc(Oc4ccc(NC(=O)CC(=O)N(C)c5ccc(F)cc5)cc4F)c3s2)nc1` [drawing 352]: the IC50 on VEGF receptor KDR is less than 250 nM; in the test with DU145 cells, 250 to 500 nM; in the test on A549 cells it was 250 to 500 nM; on c-Met, less than 250 nM; in test [1], less than 250 nM.
Regarding `COC[C@H](C)NCc1cccc(-c2cc3nccc(Oc4ccc(NC(=S)NC(=O)Cc5ccc(F)cc5)cc4F)c3s2)c1` [drawing 361], the inhibition in vivo at 20 mg/kg in the test on MKN45 tumor (168 h, 7 days) lay in the range of 25 to 50%.
In the case of `COCCNCc1ccc(-c2cc3nccc(Oc4ccc(NC(=S)NC(=O)Cc5ccccc5)cc4F)c3s2)cn1` [drawing 362], the inhibition in vivo at 20 mg/kg in the test on MKN45 tumor (192 h, 8 days) is less than 25%.
In the case of `COCCNCc1ccc(-c2cc3nccc(Oc4ccc(NC(=S)NC(=O)Cc5ccc(F)cc5)cc4F)c3s2)cn1` [drawing 363], the inhibition in vivo at 20 mg/kg in the test on MKN45 tumor (192 h, 8 days) fell in the range of 25 to 50%.
Take `COCCNCc1ccc(-c2cc3nccc(Oc4ccc(NC(=O)C5(C(=O)Nc6ccccc6)CC5)cc4F)c3s2)cc1` [drawing 364]: the inhibition in vivo at 20 mg/kg with MKN45 tumor (192 h, 8 days) is no less than 75%.
Same read-out and setting: next, `COCCNCc1ccc(-c2cc3nccc(Oc4ccc(NC(=S)NC(=O)Cc5ccccc5OC)cc4F)c3s2)nc1` [drawing 365]: 25 to 50%.
`COCCNCCn1cc(-c2cc3nccc(Oc4ccc(NC(=O)CC(=O)N(C)c5ccccc5)cc4F)c3s2)cn1` [drawing 369]: in the test on MKN45 tumor, the inhibition in vivo at 40 mg/kg was less than 25%.
Consider `COCCNCc1cnc(-c2cc3nccc(Oc4ccc(NC(=O)CC(=O)Nc5ccccc5)cc4F)c3s2)n1C` [drawing 372], for which the inhibition in vivo at 20 mg/kg in the test on MKN45 tumor (312 h, 13 days) was 25 to 50%. Besides, the inhibition in vivo at 40 mg/kg with MKN45 tumor fell in the range of 25 to 50%.
